The values below come from patent US4956381A, “Treating tissue calcium depletion or degenerative processes in bone or cartilage” (Sandoz Ltd., priority 1987, dated 1990).

Read-outs that look alike come from different tables or passages of the source.

For one data set, the system named is monocytes. In words: Effect on monocyte adherence. The settings on record: 4 h; DNA and LDH of adherent monocytes. It counts as cell-based, human. As for the experimental part:
Monocytes of freshly harvested human mononuclear cells are prepared in presence of the compound to be tested or a vehicle. After 4 h the medium is aspirated and the cell monolayer is washed as usual. The adherent monocytes are then lysed using digitonin in water, and the amount of DNA and the activity of the cytosol enzyme LDH is measured.

For the next data set, the system named is beagle dogs. Nature of the data set: Tolerability / pilot toxicology in beagle dogs. Format: in vivo. The note with it: up to 200 mg/kg/day for 26 weeks.
For data set [1], the system named is mouse peritoneal macrophages. In words: Mouse macrophage monokine inhibition (chondrocyte bioassay). Format: cell-based. The note with it: 24 h, substantially pure Z-isomeric form, 3-5 separate experiments in triplicate, read-out: ED50 (suppression of monokine release). As for the experimental part:
Purified IL-1, [Schnyder et al., J. Immunol. […] [c.f. […] J. Rheumatol.
Culture media are diluted 1:1 (v:v) with fresh medium and added to confluent rabbit chondrocytes. […] activity in the chondrocyte culture medium is monitored after a further two days.

A further data set relates to recombinant human IL-2. Nature of the data set: Recombinant human IL-2 induced mouse thymocyte proliferation. Format: cell-based. The settings on record: 10 ng/ml rh IL-2. The procedure: (§1) Lymphocyte proliferation is the standard test for monokine activity. It is highly sensitive, though relatively unspecific, with IL-2, phorbol myristate acetate, concanavalin A' g-type-prostaglandin and indomethacin-nall effecting disturbance. Human monocyte culture media are prepared as described under I.I.b. above, diluted 1:10, 1:20 and 1:40 (v:v), and added to […] (obtained from C3H/HeJ mice) Dulbecco's modified Eagle's medium, containing 20 mM hydroxyethyl-piperazin-ethane-sulfonic acid, 12 mM NaHCO3, 2 mM glutamine, 2% foetal bovine serum, 10 μM 2-mercaptoethanol, […] and antibiotics. The cells are incubated for 2 days in 96-well culture plates and the proliferation rate determined using a ^3 H-thymidine pulse (1 μC/well) during the final 6 hours. The incorporated radioactivity is collected on filter paper and counted. […] Thus determined ED50 s for the compounds D2 and K1 each in substantially pure Z-isomeric form in a series of 2 separate experiments each with 3 parallel determinations are of the order of 30 μM
(§2) In order to rule out an antagonistic effect or a direct influence of the COMPOUNDS OF THE INVENTION on the proliferation of mouse thymocytes which are used above in the LAF-test, the effect of the COMPOUNDS OF THE INVENTION on the incorporation of ^3 H-thymidine Is determined after thymocyte stimulation with recombinant human IL-1 or IL-2.

Data set [2] deals with lysosomal enzyme N-acetyl-glucose-aminidase. In words: Prevention of bone resorption: N-acetyl-glucose-aminidase release from calvaria. Format: cell-based, Swiss albino mice. The note with it: Mus musculus, read-out: IC50 N-acetylglucose-aminidase. The procedure:
(§3) Calvaria halves (frontal and parietal parts) from 4-5 day Swiss albino mice are cultured on stainless steel grids in BGJ bone tissue culture medium, supplemented with 1 mg/ml BSA at the interphase of medium and gas in a humidified atmosphere (95% air/5% CO2 ) at 37° C. - c.f. Reynolds et al. in "Organ Culture in Biomed. Res." eds. Balls and Mamichendam, Cambridge University Press, p.p. 355-366 (1976).
(§4) Influence of test substance at varying concentrations on calcium release into :he test medium in the presence of calcium release stimulators [PGE2, LPS or […] (1,25D3)]is determined. For this purpose calcium concentrations are measured in bone culture supernatants obtained from 72 and 144 hour cultures and in TCA extracts of the calvaria at the end of culture by spectrometric methods [Gindler et al., Am. J. Clin. Pathol. 58, 376-382 (1972)]. Activity of lysosomal enzyme N-acetyl-glucose-aminidase in bone culture supernatants and in Triton 100 extracts of calvaria after culture is also determined employing the method of Banerjee and Basu, Biochem. J., 45, 113-118 (1975). Changes in enzyme activity are expressed as μ units/calvarium half and as % release.
(§5) (For the calculation of IC50 values the difference between resorption rate in control cultures and resorption in maximally stimulated cultures is taken as 100 %. The IC50 is taken as the concentration of test substance which inhibits maximum resorption by 50 %)

The test system of another data set is periodontal disease. Nature of the data set: Clinical trial III: calcium resorption - periodontal disease. Format: in vivo, human. The settings on record: ca. 400 to 1200 mg p.o./day or injection ca. 0.5 or 1.0 to 5.0 mg per gum pouch; after ca. 2 to 3 weeks. The procedure: COMPOUND OF THE INVENTION, e.g. compound D2 or K1 in substantially pure Z-isomeric form, is administered at dosages of from ca. 400 to 1200 mg/p.o./day administered once or in divided dosages up to 4x daily, or by injection into the gum at the site of disease at dosages of the order of about 0.5 or 1.0 to about 5.0 mg into each gum pouch. The subjects are examined at regular weekly or 2x weekly intervals for disease progression.

The next data set deals with Calvaria halves. In words: Prevention of bone resorption: calcium release from calvaria. The settings on record: Mus musculus. It counts as cell-based, Swiss albino mice. As for the experimental part: as §3, §4, §5
Data set [3] is described as follows: Acute toxicity (LD50) in mice. The settings on record: mouse, in vivo, substantially pure Z-isomeric form.
The test system of another data set is IL-1. Nature of the data set: IL-1 induced secretion of metalloproteinase (MP) in chondrocytes. It counts as cell-based. The note with it: 2 days incubation. As for the experimental part:
Furthermore the influence on IL-1 induced secretion of MP is determined using chondrocytes as a target system for IL-1. IL-1 (Genzyme Corporation,USA) is added with or without a COMPOUND OF THE INVENTION or Dexamethasone (control) to chondrocytes and the activity or metalloproteinase is determined in the supernatant media of 2 days incubation period.

The subject of the next data set is recombinant human IL-1. Nature of the data set: Recombinant human IL-1 induced mouse thymocyte proliferation. Format: cell-based. The note with it: 75 ng/ml rh IL-1. The procedure:
as §1, §2

Another data set concerns pulmonary fibrosis. Nature of the data set: Pulmonary fibrosis (bleomycin induced). Format: in vivo, New Zealand white rabbits. The note with it: ca. 2.5 to 60 mg/kg/day p.o.; substantially pure Z-isomeric form; vs placebo. The procedure:
Testing is carried out in accordance with the general methodology described by G. J. Laurent et al. in Eur. J. Clin. Invest. (1981) 11, 441-448. Pulmonary fibrosis is induced in groups of 4 New Zealand white rabbits (aged 127 days at commencement of the experiment), each weighing 2.0-2.5 kg, by intratracheal instillation of 10 mg/kg bleomycin. The lungs of test animals are examined 2, 4 and 8 weeks later.

The mark [4] stands for this setting: 3H-thymidine incorporation, mouse thymocytes.

As usually defined, the LD50 is the dose at which mortality reaches 50%. On to `COC1=Cc2ccccc2/C(=C/C(=O)O)c2ccsc21` [Compound D2, [10-Methoxy-4H-benzo[4,5]cyclohepta[1,2-b]thiophen-4-ylidene]-acetic acid], for which, in the data set on monocytes, the “adherence of the monocytes” value was “neither the COMPOUNDS OF THE INVENTION, in particular compound D2, nor the vehicle reduce the adherence of the monocytes”. Besides, in the data set on beagle dogs, the tolerability result was “generally well tolerated”. For the same compound, the IC50 in data set [1] was roughly 100 µM; in data set [2] (in the presence of 1,25D3), 37 µM; in [2] (in the presence of LPS) it was 8.3 µM; in [2] (in the presence of PGE2), 7.9 µM; with Calvaria halves (in the presence of 1,25D3) it was 38 µM; in the data set on Calvaria halves (in the presence of LPS), 28 µM. For the same compound, in the data set on Calvaria halves (in the presence of PGE2), the IC50 was found to be 22 µM. In the data set with recombinant human IL-2, the “concentration dependency of influence on rh IL-2 induced proliferation” value is “no concentration dependency is detectable”. For the same compound, the “influence on recombinant human IL-2 induced proliferation” value in the data set with recombinant human IL-2 (setting [4]) was “no significant influence”. Besides, the “condition (periodontal disease)” value in the data set on periodontal disease is “marked improvement in condition after ca. 2 to 3 weeks continuous therapy”. Further, in [3] (iv, 7 days), the LD50 at 168 h was 163 mg/kg. Moreover, in data set [3] (po, 14 days), the LD50 at 336 h was found to be 1620 mg/kg. Besides, in the data set on IL-1, the “influence on IL-1 induced secretion of MP” value is listed as “do not influence the IL-1 induced secretion of MP”. In addition, the “concentration dependency of influence on rh IL-1 induced proliferation” value in the data set on recombinant human IL-1 is on record as “no concentration dependency is detectable”. For the same compound, in the data set with recombinant human IL-1 (setting [4]), the “influence on recombinant human IL-1 induced proliferation” value is “no significant influence”. In addition, the pulmonary fibrosis result with pulmonary fibrosis is on record as “substantial reduction of pulmonary fibrosis”.
